Laboratory results taken from US20260365653A1, “IRREVERSIBLE MUTEGFR INHIBITORS” (Bayer Aktiengesellschaft, priority 2022, published 2026).
“And” between values parts separate entries of the source, which are not always exact repeats. Equal values may be shown once.

How the values were obtained:
BA/F3 (insSVD) cells = assay: Ba/F3-EGFR-insSVD cell survival assay (Cell Titer-Glo); type: cell-based
Outline: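 CellTiter-Glo luminescence read after 48 h compound exposure at 37° C. Cells: IL-3-independent Ba/F3 lines transduced with EGFR-insSVD or EGFR-insSVD T790M, maintained on 10 ng/ml EGF and seeded at 4000 per well.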

[1] = molecular target: T1, mutEGFR (D770_N771insSVD) (Homo sapiens, UniProt P00533, DUP768-770); assay: Exon20-Mutant-EGFR (D770_N771insSVD) kinase assay (TR-FRET); type: biochemical
T1 construct: GST-EGFR #3 (SVD between D770 and N771); made in house; host or cells: Sf9 insect cells (baculovirus)

[2] = molecular target: T2, mutEGFR (D770_N771insNPG, T790) (Homo sapiens, UniProt P00533, INS770NPG/T790M); assay: mutEGFR (D770_N771insNPG, T790) kinase assay; type: biochemical
T2 construct: exact insNPG construct not described; in-house EGFR proteins were N-terminal GST fusions from baculovirus/insect cells (borders R669-A1210 given only for WT, insSVD, insASV)
Text: The different EGFR proteins used in the biochemical kinase activity inhibition assays were generated inhouse by expression in insect cells using Baculo Virus system and subsequent purification as described in the following paragraphs.
The cDNAs encoding the various protein sequences from human EGFR human (P00533) were optimized for expression in eukaryotic cells and synthesized by the GeneArt Technology at Life Technologies.

[3] = Table 3a, cell survival, Cell Titer-Glo, with 10 ng/ml EGF, without IL-3, 48 h
[4] = mutEGFR (D770_N771insSVD) kinase assay IC50, Table 2a, D770_N771insSVD, 2 mM ATP
[5] = Mus musculus, BaF3, 48 h, Table 3a, cell survival, Cell Titer-Glo, with 10 ng/ml EGF, without IL-3
[6] = Mus musculus, BaF3, 48 h, Table 3b, Ba/F3 EGFR-insSVD
[7] = mutEGFR (D770_N771insSVD) kinase assay IC50, Table 2b (from US Priority Patent Application), mutEGFR D770_N771insSVD
[8] = Table 2b (from US Priority Patent Application), mutEGFR D770_N771insNPG

T1 sequence (P00533 with tags, fused parts or gaps DUP768-770): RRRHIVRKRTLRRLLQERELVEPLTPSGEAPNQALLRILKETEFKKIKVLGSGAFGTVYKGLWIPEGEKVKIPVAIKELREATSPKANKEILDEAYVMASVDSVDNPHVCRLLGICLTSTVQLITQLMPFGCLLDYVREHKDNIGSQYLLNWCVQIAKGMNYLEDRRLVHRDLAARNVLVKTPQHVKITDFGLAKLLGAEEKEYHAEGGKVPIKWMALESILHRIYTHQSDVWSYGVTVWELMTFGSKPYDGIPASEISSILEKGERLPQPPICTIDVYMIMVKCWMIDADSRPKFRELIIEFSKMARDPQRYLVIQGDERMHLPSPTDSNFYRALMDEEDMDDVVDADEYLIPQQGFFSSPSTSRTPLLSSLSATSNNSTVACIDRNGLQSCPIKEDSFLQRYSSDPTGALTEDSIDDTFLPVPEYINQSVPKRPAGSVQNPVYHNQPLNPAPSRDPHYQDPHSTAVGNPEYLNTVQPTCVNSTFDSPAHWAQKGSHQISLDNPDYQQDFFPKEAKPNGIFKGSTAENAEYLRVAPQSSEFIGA
T2 sequence (P00533 with tags, fused parts or gaps INS770NPG/T790M limits assumed): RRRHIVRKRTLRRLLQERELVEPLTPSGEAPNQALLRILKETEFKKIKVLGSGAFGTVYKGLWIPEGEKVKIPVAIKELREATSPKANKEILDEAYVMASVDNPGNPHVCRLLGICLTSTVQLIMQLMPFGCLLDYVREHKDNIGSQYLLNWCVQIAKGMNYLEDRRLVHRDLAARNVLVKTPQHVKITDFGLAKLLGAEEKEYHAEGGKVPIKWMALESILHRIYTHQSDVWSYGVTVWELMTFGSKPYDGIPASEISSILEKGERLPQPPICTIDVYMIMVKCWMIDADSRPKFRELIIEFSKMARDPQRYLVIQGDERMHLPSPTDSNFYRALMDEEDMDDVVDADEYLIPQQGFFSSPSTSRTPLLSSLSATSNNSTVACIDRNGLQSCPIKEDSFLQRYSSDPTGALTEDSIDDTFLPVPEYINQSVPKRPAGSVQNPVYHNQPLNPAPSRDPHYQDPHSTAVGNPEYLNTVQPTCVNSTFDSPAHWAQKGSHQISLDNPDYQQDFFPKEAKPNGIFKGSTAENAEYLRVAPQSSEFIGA

SMILES | IC50 [1, 4] | IC50 ([2]; Table 2a, D770_N771insNPG) | IC50 [1, 7] | IC50 [2, 8] | IC50 (BA/F3 (insSVD) cells; [3]) | IC50 (BA/F3 (insSVD) cells; [5]) | IC50 (BA/F3 (insSVD) cells; [6])
CC1c2c(-c3ccnc4[nH]ccc34)c(-c3ccc(C(F)(F)F)cc3)nn2CCN1C(=O)/C=C/CN(C)C (single isomer, unassigned; isomer 2) [Example 252, 4-(dimethylamino)-1-[4-methyl-3-(1H-pyrrolo[2,3-b]pyridin-4-yl)-2-[4-(trifluoromethyl)phenyl]-6,7-dihydropyrazolo[1,5-a]pyrazin-5(4H)-yl]but-2-en-1-one (isomer 2)] | 11.7 nM | 2840 nM |  |  |  | 180 nM | 
Cc1c[nH]c2nccc(-c3c(-c4ccc(F)cc4)nn4c3C(C)N(C(=O)/C=C/CN(C)C)CC4)c12 (single isomer, unassigned; isomer 2) [Example 256, (E)-4-(dimethylamino)-1-(2-(4-fluorophenyl)-4-methyl-3-(3-methyl-1H-pyrrolo[2,3-b]pyridin-4-yl)-6,7-dihydropyrazolo[1,5-a]pyrazin-5(4H)-yl) but-2-en-1-one (isomer 2)] | 7490 nM | > 1630 nM |  |  |  | 158 nM | 
C=CC(=O)N1CCn2nc(-c3ccc(F)cc3)c(-c3ccnc4[nH]ccc34)c2C1C (single isomer, unassigned; isomer 2) [Example 261, 1-(2-(4-fluorophenyl)-4-methyl-3-(1H-pyrrolo[2,3-b]pyridin-4-yl)-6,7-dihydropyrazolo[1,5-a]pyrazin-5(4H)-yl) prop-2-en-1-one (isomer 2)] | 6.5 nM | 7.3 nM |  |  | 111 nM |  | 
CC1c2c(-c3ccnc4[nH]ccc34)c(-c3ccc(F)cc3)nn2CCN1C(=O)/C=C/CN(C)C (single isomer, unassigned; isomer 2) [Example 267, (E)-4-(dimethylamino)-1-(2-(4-fluorophenyl)-4-methyl-3-(1H-pyrrolo[2,3-b]pyridin-4-yl)-6,7-dihydropyrazolo[1,5-a]pyrazin-5(4H)-yl) but-2-en-1-one (isomer 2)] | 24.9 nM | 21.7 nM |  |  | 257 nM |  | 
C=CC(=O)N1Cc2c(-c3ccncc3)c(-c3ccc(OC)cc3)nn2C(C)C1 (single isomer, unassigned; isomer 2) [Example 275, 1-[2-(4-methoxyphenyl)-7-methyl-3-(pyridin-4-yl)-6,7-dihydropyrazolo[1,5-a]pyrazin-5(4H)-yl]prop-2-en-1-one (isomer 2)] | 0.476 nM | 1.22 nM |  |  | 16.8 nM |  | 
C=CC(=O)N1CCn2nc(-c3ccc(Cl)c(C)c3)c(-c3ccncc3)c2C1 [Example 2, 1-[2-(4-chloro-3-methylphenyl)-3-(pyridin-4-yl)-6,7-dihydropyrazolo[1,5-a]pyrazin-5(4H)-yl]prop-2-en-1-one] | 0.105 nM and < 0.0725 nM | 0.146 nM | < 0.0725 nM and 0.105 nM | 0.146 nM |  | 20.6 nM | 20.6 nM
C=CC(=O)N1CCn2nc(-c3cccc(F)c3)c(-c3ccncc3)c2C1 [Example 4, 1-[2-(3-fluorophenyl)-3-(pyridin-4-yl)-6,7-dihydropyrazolo[1,5-a]pyrazin-5(4H)-yl]prop-2-en-1-one] | 1.45 nM | 1.47 nM | 1.45 nM | 1.47 nM |  | 50.5 nM | 50.5 nM
CN(C)C/C=C/C(=O)N1CCn2nc(-c3ccc(F)cc3)c(-c3ccnc(NC(=O)C4CC4)c3)c2C1 [Example 8, N-(4-{5-[(2E)-4-(dimethylamino)but-2-enoyl]-2-(4-fluorophenyl)-4,5,6,7-tetrahydropyrazolo[1,5-a]pyrazin-3-yl}pyridin-2-yl)cyclopropanecarboxamide] | 0.393 nM | 0.765 nM | 0.393 nM | 0.765 nM |  | 20.4 nM | 20.4 nM
O=C(Nc1cc(-c2c(-c3ccc(F)cc3)nn3c2CN(C(=O)C2CO2)CC3)ccn1)C1CC1 (centres unmarked) [Example 9, N-{4-[2-(4-fluorophenyl)-5-(oxirane-2-carbonyl)-4,5,6,7-tetrahydropyrazolo[1,5-a]pyrazin-3-yl]pyridin-2-yl}cyclopropanecarboxamide] | 64.5 nM | 104 nM | 64.5 nM | 104 nM |  | 2040 nM | 2040 nM
C=CC(=O)N1CCn2nc(-c3ccc(F)cc3)c(-c3ccncc3OC)c2C1 [Example 12, 1-[2-(4-fluorophenyl)-3-(3-methoxypyridin-4-yl)-6,7-dihydropyrazolo[1,5-a]pyrazin-5(4H)-yl]prop-2-en-1-one] | 37.1 nM | 84.2 nM | 37.1 nM | 84.2 nM |  | 359 nM | 359 nM

Continued, in another order:

IC50 [1, 4] | IC50 ([2]; Table 2a, D770_N771insNPG) | IC50 [1, 7] | IC50 [2, 8] | SMILES | IC50 (BA/F3 (insSVD) cells; [3]) | IC50 (BA/F3 (insSVD) cells; [5]) | IC50 (BA/F3 (insSVD) cells; [6])
435 nM | 216 nM |  |  | C=CC(=O)N1CCn2nc(-c3ccc(F)cc3)c(-c3ccnc4[nH]cc(C)c34)c2C1C (single isomer, unassigned; isomer 2) [Example 250, 1-(2-(4-fluorophenyl)-4-methyl-3-(3-methyl-1H-pyrrolo[2,3-b]pyridin-4-yl)-6,7-dihydropyrazolo[1,5-a]pyrazin-5(4H)-yl) prop-2-en-1-one (isomer 2)] | 75.1 nM |  | 
247 nM | 3950 nM |  |  | Cc1c[nH]c2nccc(-c3c(-c4ccc(C(F)(F)F)cc4)nn4c3C(C)N(C(=O)/C=C/CN(C)C)CC4)c12 (single isomer, unassigned; isomer 2) [Example 253, 4-(dimethylamino)-1-(4-methyl-3-(3-methyl-1H-pyrrolo[2,3-b]pyridin-4-yl)-2-(4-(trifluoromethyl)phenyl)-6,7-dihydropyrazolo[1,5-a]pyrazin-5(4H)-yl) but-2-en-1-one (isomer 2)] | 490 nM |  | 
50.6 nM | 62.2 nM |  |  | C=CC(=O)N1CCn2nc(-c3ccc(Cl)cc3F)c(-c3ccncc3)c2C1C (single isomer, unassigned; isomer 2) [Example 279, 1-[2-(4-chloro-2-fluorophenyl)-4-methyl-3-(pyridin-4-yl)-6,7-dihydropyrazolo[1,5-a]pyrazin-5(4H)-yl]prop-2-en-1-one (isomer 2)] | 429 nM |  | 
71 nM | 95.7 nM |  |  | CC1c2c(-c3ccncc3)c(-c3ccc(Cl)cc3F)nn2CCN1C(=O)/C=C/CN(C)C (single isomer, unassigned; isomer 2) [Example 286, (2E)-1-[2-(4-chloro-2-fluorophenyl)-4-methyl-3-(pyridin-4-yl)-6,7-dihydropyrazolo[1,5-a]pyrazin-5(4H)-yl]-4-(dimethylamino)but-2-en-1-one (isomer 2)] | 843 nM |  | 
29.6 nM | 43.8 nM | 29.6 nM | 43.8 nM | C=CC(=O)N1CCn2nc(-c3ccc(F)cc3)c(-c3ccnc(OC)c3)c2C1 [Example 11, 1-[2-(4-fluorophenyl)-3-(2-methoxypyridin-4-yl)-6,7-dihydropyrazolo[1,5-a]pyrazin-5(4H)-yl]prop-2-en-1-one] |  | 1560 nM | 1560 nM
0.807 nM | 1.26 nM | 0.807 nM | 1.26 nM | C#CC(=O)N1CCn2nc(-c3ccc(F)cc3)c(-c3ccncc3)c2C1 [Example 13, 1-[2-(4-fluorophenyl)-3-(pyridin-4-yl)-6,7-dihydropyrazolo[1,5-a]pyrazin-5(4H)-yl]prop-2-yn-1-one] |  | 909 nM | 909 nM
0.729 nM | 1.08 nM | 0.729 nM | 1.08 nM | CN(C)C/C=C/C(=O)N1CCn2nc(-c3ccc(F)cc3)c(-c3ccncc3)c2C1 [Example 15, (2E)-4-(dimethylamino)-1-[2-(4-fluorophenyl)-3-(pyridin-4-yl)-6,7-dihydropyrazolo[1,5-a]pyrazin-5(4H)-yl]but-2-en-1-one] |  | 86.9 nM | 86.9 nM
55.2 nM | 76.6 nM | 55.2 nM | 76.6 nM | CC#CC(=O)N1CCn2nc(-c3ccc(F)cc3)c(-c3ccncc3)c2C1 [Example 16, 1-[2-(4-fluorophenyl)-3-(pyridin-4-yl)-6,7-dihydropyrazolo[1,5-a]pyrazin-5(4H)-yl]but-2-yn-1-one] |  | 774 nM | 774 nM
55.7 nM | 85.8 nM | 55.7 nM | 85.8 nM | C=C(F)C(=O)N1CCn2nc(-c3ccc(F)cc3)c(-c3ccncc3)c2C1 [Example 17, 2-fluoro-1-[2-(4-fluorophenyl)-3-(pyridin-4-yl)-6,7-dihydropyrazolo[1,5-a]pyrazin-5(4H)-yl]prop-2-en-1-one] |  | 1150 nM | 1150 nM
25.9 nM | 210 nM | 25.9 nM |  | C=CC(=O)N1CCn2nc(Nc3ccc(F)cc3)c(-c3ccncc3)c2C1 [Example 19, 1-[2-(4-fluoroanilino)-3-(pyridin-4-yl)-6,7-dihydropyrazolo[1,5-a]pyrazin-5(4H)-yl]prop-2-en-1-one] |  | 823 nM | 823 nM
